According to patent publication US6376510B1, “Neuromuscular relaxants” (Newlaxant LLC, priority 1997, dated 2002):
Like-named read-outs stand apart in the source and are kept apart here.

Experiments:
[1] = test system: anesthetized juvenile pigs; experiment: animal or person; format: in vivo; conditions: pig; for ED50: intravenous dose causing 50% neuromuscular block; for RI (recovery index): spontaneous recovery, 25-75% neuromuscular response; for Onset: time to 80-85% neuromuscular block
Outline: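 Electromyographic and mechanomyographic responses quantified. Monkeys sedated with intramuscular ketamine, then general anesthesia with intravenous pentobarbital and propofol; juvenile pigs induced with inhaled halothane.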

[2] = test system: anesthetized monkeys; experiment: In vivo neuromuscular block and cardiovascular side effects, monkey (Example 8, Table 6); conditions: for ED50: intravenous dose causing 50% neuromuscular block; for RI (recovery index): spontaneous recovery, 25-75% neuromuscular response; for Onset: time to 80-85% neuromuscular block
Excerpt: Both electromyographic and mechanomyographic responses can be quantified.
The techniques described under a) and b) were employed in other species as needed with the modification that juvenile pigs were initially anesthetized with inhalation of halothane (Table 5) and monkeys were initially sedated with intramuscular ketamine injections prior to inducing and maintaining general anesthesia using pentobarbital and propofol administered intravenously (Table 6).

[3] = test system: anesthetized cats (evoked responses of anterior tibial muscle); experiment: animal or person; conditions: for RI (recovery index): spontaneous recovery, 25-75% neuromuscular response; for Onset: time to 80-85% neuromuscular block
Excerpt: a) Adult, male albino rats were anesthetized with pentobarbital injected intraperitoneally. The trachea was cannulated for artificial respiration via a small animal respirator. The carotid artery was cannulated for recording blood pressure via a transducer and heart rate by a cardiotachograph on a polygraph. One external jugular vein was cannulated for i.v. drug administration. Neuromuscular function was monitored by electromyography, recording evoked responses from the anterior tibial muscle as a result of supramaximal nerve stimuli consisting of single or “train-of-four” rectangular pulses of 0.1-0.2 msec duration every 10-12 seconds, delivered to the sciatic or common peroneal nerve by a laboratory nerve stimulator. Another mode of stimulation included repeated single stimuli delivered at 0.1 Hz or 1 Hz. […] The agents were dissolved in physiologic saline and injected intravenously at appropriate time intervals. The intensity, onset, and duration of neuromuscular block and its type were determined with each agent. Through administering several doses, the doses corresponding to 50%, 80% and 90% neuromuscular block were determined. All agents were compared with selected standard neuromuscular blocking compounds, e.g. succinylcholine, pancuronium, mivacurium, or rocuronium.
Onset=time in minutes to 80-85% neuromuscular block.
RI=recovery index, minutes, spontaneous recovery, 25-75% neuromuscular response.
VB=vagal block, %, at 80-85% neuromuscular blocking dose.
ΔHR=change in heart rate, %, at 80-85% neuromuscular blocking dose.
ΔBP=change in arterial blood pressure, %, at 80-85% neuromuscular blocking dose.
b) Adult cats were anesthetized with a mixture of 70 mg/kg alpha chloralose and 0.5 g/kg ethylurethane intraperitoneally. One thigh was fixed in a vertical position by means of a pin at the lower end of the femur. Needle electrodes were placed on the sciatic or the common peroneal nerve. A tendon of the anterior tibial muscle was attached to a force transducer and the muscle responses evoked, as described under a), were recorded. Both electromyographic and mechanomyographic responses can be quantified. Blood pressure and heart rate changes were recorded from appropriately cannulated arteries via a blood pressure transducer and cardiotachograph.

[4] = test system: dogs; experiment: animal or person; format: in vivo; conditions: dog; for ED50: intravenous dose causing 50% neuromuscular block; for RI (recovery index): spontaneous recovery, 25-75% neuromuscular response; for Onset: time to 80-85% neuromuscular block
[5] = test system: rabbits; experiment: In vivo neuromuscular block and cardiovascular side effects, rabbit (Example 8, Table 7); conditions: for ED50: intravenous dose causing 50% neuromuscular block; for RI (recovery index): spontaneous recovery, 25-75% neuromuscular response; for Onset: time to 80-85% neuromuscular block
[6] = test system: anesthetized rats (evoked responses of anterior tibial muscle); experiment: In vivo neuromuscular block and cardiovascular side effects, anesthetized rat (Example 8, Table 3); conditions: for RI (recovery index): spontaneous recovery, 25-75% neuromuscular response; for Onset: time to 80-85% neuromuscular block
Outline: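 Pentobarbital-anesthetized (i.p.), ventilated adult male rats given saline-dissolved agents i.v.; anterior tibial EMG responses to supramaximal single or train-of-four sciatic/peroneal stimuli, plus 0.1 or 1 Hz stimulation. Doses for 50%, 80%, 90% block derived. Onset: minutes to 80-85% block; RI: 25-75% spontaneous recovery; vagal block, heart rate and blood pressure changes (%) at 80-85% blocking dose.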

[7] = cat, intravenous dose causing 50% neuromuscular block
[8] = rat, intravenous dose causing 50% neuromuscular block
[9] = at 80-85% neuromuscular blocking dose
[10] = cat, at 80-85% neuromuscular blocking dose
[11] = rat, at 80-85% neuromuscular blocking dose

CC(=O)Oc1ccc(C[N+]2(C)C3CCCC2CC(OC(=O)C2CCC2C(=O)OC2CC4CCCC(C2)[N+]4(C)Cc2ccc(OC(C)=O)c(OC(C)=O)c2)C3)cc1OC(C)=O.[Br-].[Br-] (centres unmarked) [bis[N-(3,4-diacetoxybenzyl)granataninium-3-yl]cyclobutane-1,2-dicarboxylate dibromide]
VB (vagal block) ([1]; in vivo): 15%
ΔBP (change in arterial blood pressure) ([1]; in vivo): 0%
ΔH (change in heart rate) ([1]; in vivo): 0%
ED50 [1]: 0.1 mg/kg
RI (recovery index) [1]: 1 min
Onset [1]: 0.8 min
ΔBP (change in arterial blood pressure) ([2]; in vivo): 0%
ΔH (change in heart rate) ([2]; in vivo): 0%
ED50 [2]: 0.086 mg/kg
RI (recovery index) [2]: 0.4 min
Onset [2]: 0.7 min
ED50 [3, 7]: 0.4 mg/kg
RI (recovery index) ([3]; cat): 0.5 min
Onset ([3]; cat): 0.6 min
ΔBP (change in arterial blood pressure) ([3]; in vivo): 0%
ΔH (change in heart rate) ([3]; in vivo): 0%
ΔBP (change in arterial blood pressure) ([4]; in vivo): −5%
ΔH (change in heart rate) ([4]; in vivo): 27%
ED50 [4]: 0.15 mg/kg
RI (recovery index) [4]: 0.7 min
Onset [4]: 0.75 min
ΔBP (change in arterial blood pressure) ([5]; in vivo): 0%
ΔH (change in heart rate) ([5]; in vivo): 0%
ED50 [5]: 0.115 mg/kg
RI (recovery index) [5]: 0.6 min
Onset [5]: 0.6 min
VB (vagal block) ([6]; rat, in vivo): 2%
ΔBP (change in arterial blood pressure) ([6]; rat, in vivo): 0%
ΔH (change in heart rate) ([6]; rat, in vivo): 0%
ED50 [6, 8]: 0.133 mg/kg
RI (recovery index) ([6]; rat): 0.4 min
Onset ([6]; rat): 0.5 min

CC(=O)Oc1ccc(C[N+]2(C)C3CCCC2CC(OC(=O)CCCC(=O)OC2CC4CCCC(C2)[N+]4(C)Cc2ccc(OC(C)=O)c(OC(C)=O)c2)C3)cc1OC(C)=O.[Br-].[Br-] (centres unmarked) [bis[N-(3,4-diacetoxybenzyl)granataninium-3-yl]glutarate dibromide]
VB (vagal block) ([1]; in vivo): 40%
ΔBP (change in arterial blood pressure) ([1]; in vivo): 0%
ΔH (change in heart rate) ([1]; in vivo): 0%
ED50 [1]: 0.235 mg/kg
RI (recovery index) [1]: 0.9 min
Onset [1]: 0.8 min
ΔBP (change in arterial blood pressure) ([2]; in vivo): 0%
ΔH (change in heart rate) ([2]; in vivo): 0%
ED50 [2]: 0.075 mg/kg
RI (recovery index) [2]: 0.4 min
Onset [2]: 0.7 min
ED50 [3, 7]: 0.7 mg/kg
RI (recovery index) ([3]; cat): 0.4 min
Onset ([3]; cat): 0.7 min
VB (vagal block) ([3]; in vivo): 60%
ΔBP (change in arterial blood pressure) ([3]; in vivo): −50%
ΔH (change in heart rate) ([3]; in vivo): 0%
ΔBP (change in arterial blood pressure) ([4]; in vivo): −18%
ΔH (change in heart rate) ([4]; in vivo): 50%
ED50 [4]: 0.225 mg/kg
RI (recovery index) [4]: 0.6 min
Onset [4]: 0.65 min
ΔBP (change in arterial blood pressure) ([5]; in vivo): 0%
ΔH (change in heart rate) ([5]; in vivo): 0%
ED50 [5]: 0.165 mg/kg
RI (recovery index) [5]: 0.55 min
Onset [5]: 0.65 min
VB (vagal block) ([6]; rat, in vivo): 0%
ΔBP (change in arterial blood pressure) ([6]; rat, in vivo): 0%
ΔH (change in heart rate) ([6]; rat, in vivo): 0%
ED50 [6, 8]: 0.17 mg/kg
RI (recovery index) ([6]; rat): 0.45 min
Onset ([6]; rat): 0.6 min

CC(=O)Oc1ccc(C[N+]2(C)C3CCCC2CC(OC(=O)CCCCCCC(=O)OC2CC4CCCC(C2)[N+]4(C)Cc2ccc(OC(C)=O)c(OC(C)=O)c2)C3)cc1OC(C)=O.[Br-].[Br-] (centres unmarked) [bis[N-(3,4-diacetoxybenzyl)granataninium-3-yl]suberate dibromide]
VB (vagal block) ([1]; in vivo): 80%
ΔBP (change in arterial blood pressure) ([1]; in vivo): 0%
ΔH (change in heart rate) ([1]; in vivo): 0%
ED50 [1]: 0.25 mg/kg
RI (recovery index) [1]: 0.8 min
Onset [1]: 0.6 min
ΔBP (change in arterial blood pressure) ([2]; in vivo): 0%
ΔH (change in heart rate) ([2]; in vivo): 0%
ED50 [2]: 0.2 mg/kg
RI (recovery index) [2]: 0.4 min
Onset [2]: 0.9 min
ED50 [3, 7]: 0.7 mg/kg
RI (recovery index) ([3]; cat): 0.5 min
Onset ([3]; cat): 0.6 min
VB (vagal block) ([3]; in vivo): 80%
ΔBP (change in arterial blood pressure) ([3]; in vivo): −20%
ΔH (change in heart rate) ([3]; in vivo): 0%
ΔBP (change in arterial blood pressure) ([4]; in vivo): −55%
ΔH (change in heart rate) ([4]; in vivo): 60%
ED50 [4]: 0.25 mg/kg
RI (recovery index) [4]: 0.45 min
Onset [4]: 0.8 min
ΔBP (change in arterial blood pressure) ([5]; in vivo): 0%
ΔH (change in heart rate) ([5]; in vivo): 0%
ED50 [5]: 0.475 mg/kg
RI (recovery index) [5]: 0.55 min
Onset [5]: 0.5 min
VB (vagal block) ([6]; rat, in vivo): 60%
ΔBP (change in arterial blood pressure) ([6]; rat, in vivo): 0%
ΔH (change in heart rate) ([6]; rat, in vivo): 0%
ED50 [6, 8]: 0.45 mg/kg
RI (recovery index) ([6]; rat): 0.35 min
Onset ([6]; rat): 0.4 min

CC(=O)Oc1ccc(C[N+]2(C)[C@@H]3CC[C@H]2C[C@@H](OC(=O)C2CCC2C(=O)O[C@H]2C[C@H]4CC[C@@H](C2)[N+]4(C)Cc2ccc(OC(C)=O)c(OC(C)=O)c2)C3)cc1OC(C)=O.[Br-].[Br-] (stereo partly drawn) [bis[N-(3,4-diacetoxybenzyl)tropanium-3α-yl]cyclobutane-1,2-dicarboxylate dibromide]
ED50 ([1]; Sus scrofa, read-out: ED50): 0.275 mg/kg
VB (vagal block) [1, 9]: 42%
ΔBP (change in arterial blood pressure) [1, 9]: 0%
ΔH (change in heart rate) [1, 9]: 0%
RI (recovery index) [1]: 0.85 min
Onset [1]: 0.68 min
ED50 ([2]; Primates, read-out: ED50): 0.054 mg/kg
ΔBP (change in arterial blood pressure) [2, 9]: 0%
ΔH (change in heart rate) [2, 9]: 0%
RI (recovery index) [2]: 0.4 min
Onset [2]: 0.95 min
ED50 ([3]; Felis catus, iv): 0.135 mg/kg
VB (vagal block) [3, 10]: 12%
ΔBP (change in arterial blood pressure) [3, 10]: 0%
ΔH (change in heart rate) [3, 10]: 0%
RI (recovery index) ([3]; cat): 0.5 min
Onset ([3]; cat): 0.95 min
ED50 ([4]; Canis lupus familiaris, read-out: ED50): 0.1 mg/kg
ΔBP (change in arterial blood pressure) [4, 9]: −7%
ΔH (change in heart rate) [4, 9]: 10%
RI (recovery index) [4]: 0.65 min
Onset [4]: 0.9 min
ED50 ([5]; Oryctolagus cuniculus, read-out: ED50): 0.078 mg/kg
ΔBP (change in arterial blood pressure) [5, 9]: 0%
ΔH (change in heart rate) [5, 9]: 0%
RI (recovery index) [5]: 0.6 min
Onset [5]: 0.8 min
ED50 ([6]; Rattus norvegicus, iv): 0.218 mg/kg
VB (vagal block) [6, 11]: 5%
ΔBP (change in arterial blood pressure) [6, 11]: 0%
ΔH (change in heart rate) [6, 11]: 0%
RI (recovery index) ([6]; rat): 0.45 min
Onset ([6]; rat): 0.7 min
